Assay results reported in ChEMBL document CHEMBL1240378, “Pharmacokinetic-pharmacodynamic modeling of alpha interferon response induced by a Toll-like 7 receptor agonist in mice” (Antimicrob Agents Chemother, 2010).

Key:
Hepatitis C virus = test: Antiviral activity against HCV infected in human Huh7 cells with persistent PFK1389-Luc-Ubi-Neo-NS3-3'/ET replicon after 48 hrs by luminescence based assay; assay type: functional, organism-based, Hepacivirus hominis; conditions: Huh-7, 48 h
Mus musculus [1] = test: Induction of IFNalpha production in CD1 mouse assessed as maximum rate of interferon alpha synthesis at 0.1 to 10 mg/kg, po; assay type: functional; conditions: dose mg/kg 0.1-10
Mus musculus [2] = test: Induction of IFNalpha production in CD1 mouse assessed as elimination rate constant for interferon alpha at 0.1 to 10 mg/kg, po; assay type: functional; conditions: dose mg/kg 0.1-10
Mus musculus [3] = test: Intercompartmental clearance in CD1 mouse at 0.1 to 10 mg/kg, po; assay type: ADME, organism-based; design: dose 0.1-10 mg/kg, route oral; conditions: in vivo
Mus musculus [4] = test: Volume of distribution in central compartment in CD1 mouse at 0.1 to 10 mg/kg, po; assay type: ADME, organism-based; design: dose 0.1-10 mg/kg, route oral; conditions: in vivo
Mus musculus [5] = test: Induction of IFNalpha production in CD1 mouse assessed as concentration of compound required for half-maximal synthesis of INF-alpha at 0.1 to 10 mg/kg, po; assay type: functional; conditions: dose mg/kg 0.1-10
Mus musculus [6] = test: Absorption rate constant for depot compartment in CD1 mouse at 0.1 to 10 mg/kg, po; assay type: ADME, organism-based; design: dose 0.1-10 mg/kg, route oral; conditions: in vivo
Mus musculus [7] = test: Apparent volume of distribution in CD1 mouse at 0.1 to 10 mg/kg, po; assay type: ADME, organism-based; design: dose 0.1-10 mg/kg, route oral; conditions: in vivo
[8] = Oral bioavailability in rat at 3 mg/kg; assay type: ADME, organism-based; conditions: in vivo
[9] = Clearance in CD1 mouse at 0.1 to 10 mg/kg, po; assay type: ADME, organism-based; design: dose 0.1-10 mg/kg, route oral; conditions: in vivo

EC50 (Hepatitis C virus): 30 nM
CL (Mus musculus [3]): 46.3 mL/min/kg
Vd (Mus musculus [4]): 4.31 L/kg
Ka (Mus musculus [6]): 35 h⁻¹
Vz (Mus musculus [7]): 40 L/kg
bioavailability [8]: 40%
CL/F [9]: 57.5 mL/min/kg
Structure (SMILES): COCCOc1nc(N)c2[nH]c(=O)n(Cc3ccccc3)c2n1
Smax (Mus musculus [1]): 294 IU/ml/hr
Activity (Mus musculus [2]): 0.958 h⁻¹
SC50 (Mus musculus [5]): 135 ng/mL
